Patent US10201532B2, “Compounds and their use” (ALLECRA THERAPEUTICS GMBH, priority 2010, dated 2019)

What was measured:
[1] = test system: KPC-2 producing K. pneumoniae (ATCC BAA-1705); assay: Synergistic broth micro-dilution MIC (checkerboard); assay type: cell-based, Klebsiella pneumoniae; settings: ATCC BAA-1705; for MIC: Klebsiella pneumoniae, ATCCBAA1705, no BLI, read-out: MIC of antibiotic alone (no BLI)
[2] = test system: KPC-3 expressing E. coli (J53 R6206); assay: microbe, parasite or virus in culture; assay type: cell-based, Escherichia coli; settings: no BLI; E. coli J53 R6206
Description: The β-lactam compound was tested for in vitro antibacterial activities by the broth micro-dilution or agar dilution method as specified in documents published by Clinical and Laboratory Standards Institute (CLSI), USA (formerly NCCLS). Approved standard M7-A7, January 2006, CLSI, Wayne, Pa., USA and M100-S18, January 2008, CLSI, Wayne, Pa., USA.
In agar dilution method briefly, stock solutions of the cephalosporins for veterinary use (e.g. 2 mg/mL) was made in water, 0.1M phosphate buffers or appropriate solvents and the solution was serially two fold diluted. Compound-1 was dissolved in water and Tazobactam (comparator BLI) in 0.1M phosphate buffer, pH 6.0 to get a solution of 1 mg/mL. Cephalosporins were screened in a concentration range of 0.5-32 μg/mL. For combination, Tazobactam or the Compound-1 described herein were tested at a fixed concentration of 4 μg/mL along with the cephalosporins concentration ranging from 0.5 to 32 μg/mL. […] The compound of formula (I) and Tazobactam were also tested individually. The bacterial inoculum was prepared by picking 3 to 5 well isolated bacterial colonies with the same morphological appearance from an 18-24 h old culture and adjusting the turbidity of the saline suspension to 0.5 McFarland turbidity standard equivalent to a bacterial population of ˜1×10^8 CFU per mL of suspension. The suspension was diluted 1:10 in saline to get a bacterial population of ˜1×10^7 CFU/mL as inoculum. This bacterial inoculum was inoculated onto the prepared petri dishes by a multipoint inoculator with each inoculum spot containing ˜1×10^4 CFU of the bacterial strain. The inoculated petri dishes were incubated at 35° C. in an ambient atmosphere for 18-20 h.

[3] = test system: KPC-3 expressing E. coli (J53 R6206); assay: Synergistic broth micro-dilution MIC (checkerboard); assay type: cell-based, Escherichia coli

In the case of CC1=C(C(=O)O)N2C(=O)[C@@H](NC(=O)[C@H](N)c3ccc(O)cc3)[C@H]2SC1 [Cefadroxil], the MIC [1] is reported as over 64 µg/mL and the “MIC of veterinary cephalosporin alone (no BLI)” value [2] is reported as over 32 µg/mL.

In the case of NC(=O)c1cc[n+](CC2=C(C(=O)[O-])N3C(=O)[C@@H](NC(=O)Cc4cccs4)[C@H]3SC2)cc1 [Cefalonium], the MIC [1] is reported as over 64 µg/mL and the “MIC of veterinary cephalosporin alone (no BLI)” value [2] is reported as 32 µg/mL.

CO/N=C(\C(=O)N[C@@H]1C(=O)N2C(C(=O)[O-])=C(C[N+]3(C)CCCC3)CS[C@H]12)c1csc(N)n1 [Cefepime] was tested, and the “MIC of antibiotic alone (no BLI)” value [3] was over 16 µg/mL and the MIC [1] was over 128 µg/mL.

CO/N=C(\C(=O)N[C@@H]1C(=O)N2C(C(=O)O)=C(COC(C)=O)CS[C@H]12)c1csc(N)n1 [Cefotaxime] was tested, and the “MIC of antibiotic alone (no BLI)” value [3] was over 32 µg/mL and the MIC [1] was over 128 µg/mL.

For CO/N=C(\C(=O)N[C@@H]1C(=O)N2C(C(=O)[O-])=C(C[n+]3cccc4c3CCCC4)CS[C@H]12)c1csc(N)n1 [Cefquinome], the “MIC of antibiotic alone (no BLI)” value ([1]; no BLI) was over 64 µg/mL and the “MIC of veterinary cephalosporin alone (no BLI)” value [2] was 16 µg/mL.

In the case of CO/N=C(\C(=O)N[C@@H]1C(=O)N2C(C(=O)O)=C(CSC(=O)c3ccco3)CS[C@H]12)c1csc(N)n1 [Ceftiofur], the MIC [1] is reported as over 64 µg/mL and the “MIC of veterinary cephalosporin alone (no BLI)” value [2] is reported as 16 µg/mL.

For Nc1nc(/C(=N/O)C(=O)N[C@@H]2C(=O)N3C(C(=O)O)=C(/C=C4\CCN([C@@H]5CCNC5)C4=O)CS[C@H]23)ns1 [Ceftobiprole], the “MIC of antibiotic alone (no BLI)” value [3] was over 32 µg/mL and the MIC [1] was over 64 µg/mL.

With CC[n+]1ccn(C[C@@]2(C)[C@H](C(=O)O)N3C(=O)C[C@H]3S2(=O)=O)n1 [Compound-2, 1-{[(2S,3S,5R)-2-Carboxy-3-methyl-4,4,7-trioxo-4-thia-1-azabicyclo[3.2.0]hept-3-yl]methyl}-3-ethyl-1H-1,2,3-triazol-3-ium] the “MIC of BLI alone” value ([3]; BLI alone) was over 16 µg/mL, the “MIC of Imipenem in combination with BLI” value ([3]; BLI at 4 μg/mL) was 0.5 µg/mL and the “MIC of Meropenem in combination with BLI” value ([3]; BLI at 4 μg/mL) was under 0.125 µg/mL. For the same molecule, the “MIC of Imipenem in combination with BLI” value ([3]; BLI at 16 μg/mL) was 0.25 µg/mL, the “MIC of Meropenem in combination with BLI” value ([3]; BLI at 16 μg/mL) was under 0.125 µg/mL and the “MIC of BLI alone” value ([1]; BLI alone) was over 16 µg/mL. For the same molecule, the “MIC of Imipenem in combination with BLI” value ([1]; BLI at 4 μg/mL) was 4 µg/mL, the “MIC of Meropenem in combination with BLI” value ([1]; BLI at 4 μg/mL) was 8 µg/mL and the “MIC of Imipenem in combination with BLI” value ([1]; BLI at 16 μg/mL) was 1 µg/mL. The “MIC of Meropenem in combination with BLI” value ([1]; BLI at 16 μg/mL) was 2 µg/mL.
